Patent US20140287074A1, “Extracts of deschampsia antartica with antineoplastic activity” (Uxmal S.A., Chile, priority 2013, published 2014)

Test system: LoVo colorectal cancer cells
Experiment: In vitro growth (proliferation, viability) of LoVo colon cancer cells
Assay type: cell-based, human
Description: FIG. 4. Effects of fractions of Deschampsia antarctica in concentrations of 100 μg/ml on in vitro growth of colon cancer cells (HT29 and LoVo), hepatic cancer cells (Hep3B) and control cells (wi38). GCB1, GCB2 and GCB3 correspond to extraction of three different collections of Deschampsia antarctica plants for the Antarctic. The extracts were prepared with water, then dried and dissolved in methanol. Control contains no extract added and the methanol control is a control containing 5% methanol as was used to dissolve the dried aqueous extract.
FIG. 5. Effects of ethyl acetate (a and B) and methanol (c and d) extracts at to concentration of 75 ug/ml on LoVo colorectal cancer cells (a and c) and we38 human fetal fibroblast cells (b and d).
Its effect on WI38 (normal lung fibroblasts) was tested at the maximum concentration to determine specificity and toxicity.
The same extract was tested in WI 38 cells (normal lung fibroblasts).

O=c1cc(-c2ccc(O)c(O)c2)oc2c([C@@H]3OC(CO)[C@@H](O)[C@H](O)C3O[C@H]3OC[C@H](O)[C@@H](O)C3O)c(O)cc(O)c12 (single isomer, unassigned; peak 2) [peak 2, orientin 2″-beta-arabinopyranoside]
concentration at which inhibitory effect on cellular proliferation was observed (corresponds to 1.7 mM): 1000 µg/mL | concentration at which inhibitory effect on cellular proliferation was observed (tested at 0.017, 0.17 and 1.7 mM, FIG. 6): 1.7 mM
